Test results from the NIST ThermoML archive (doi:10.1021/je300134c).

Test: xn = mol fraction of the nth substance listed
Conditions: 101 kPa, Liquid; for speed of sound: Sing-around technique in a fixed-path interferometer; for mass density: Vibrating tube method

CCCCn1cc[n+](C)c1.O=S(=O)([O-])C(F)(F)F [1-butyl-3-methylimidazolium trifluoromethanesulfonate] + O
Conditions	mass density [kg/m3]	speed of sound [m/s]
288.15 K, x1 = 0.05002	1122.78	1539.5
288.15 K, x1 = 0.09974	1178.77	1524.8
288.15 K, x1 = 0.1499	1211.09	1510.4
288.15 K, x1 = 0.3013	1257.47	1474.6
288.15 K, x1 = 0.3994	1272.13	1459
288.15 K, x1 = 0.4973	1281.71	1447.6
288.15 K, x1 = 0.5999	1289.22	1438
288.15 K, x1 = 0.6988	1294.59	1431.6
288.15 K, x1 = 0.8953	1302.01	1420.5
288.15 K, x1 = 1	1304.56	1416
298.15 K, x1 = 0.05002	1116.95	1538.2
298.15 K, x1 = 0.09974	1171.65	1514.3
298.15 K, x1 = 0.1499	1203.38	1494.8
298.15 K, x1 = 0.3013	1249.32	1453.8
298.15 K, x1 = 0.3994	1263.98	1437.3
298.15 K, x1 = 0.4973	1273.59	1425.5
298.15 K, x1 = 0.5999	1281.16	1415.7
298.15 K, x1 = 0.6988	1286.57	1408.8
298.15 K, x1 = 0.8953	1294.08	1397.7
298.15 K, x1 = 1	1296.67	1393
308.15 K, x1 = 0.05002	1110.67	1533.5
308.15 K, x1 = 0.09974	1164.25	1501.6
308.15 K, x1 = 0.1499	1195.48	1477.9
308.15 K, x1 = 0.3013	1241.1	1432.7
308.15 K, x1 = 0.3994	1255.79	1415.6
308.15 K, x1 = 0.4973	1265.46	1403.5
308.15 K, x1 = 0.5999	1273.1	1393.6
308.15 K, x1 = 0.6988	1278.56	1386.5
308.15 K, x1 = 0.8953	1286.15	1375.5
308.15 K, x1 = 1	1288.78	1370.7
318.15 K, x1 = 0.05002	1103.96	1525.8
318.15 K, x1 = 0.09974	1156.58	1486.9
318.15 K, x1 = 0.1499	1187.4	1459.8
318.15 K, x1 = 0.3013	1232.82	1411.4
318.15 K, x1 = 0.3994	1247.58	1393.8
318.15 K, x1 = 0.4973	1257.33	1381.7
318.15 K, x1 = 0.5999	1265.05	1371.7
318.15 K, x1 = 0.6988	1270.58	1364.7
318.15 K, x1 = 0.8953	1278.27	1353.8
318.15 K, x1 = 1	1280.95	1349
328.15 K, x1 = 0.05002	1096.85	1515.2
328.15 K, x1 = 0.09974	1148.65	1470.6
328.15 K, x1 = 0.1499	1179.14	1440.5
328.15 K, x1 = 0.3013	1224.48	1389.8
328.15 K, x1 = 0.3994	1239.35	1372.1
328.15 K, x1 = 0.4973	1249.21	1359.9
328.15 K, x1 = 0.5999	1257.03	1350.1
328.15 K, x1 = 0.6988	1262.64	1343.2
328.15 K, x1 = 0.8953	1270.44	1332.5
328.15 K, x1 = 1	1273.16	1327.8
338.15 K, x1 = 0.05002	1089.38	1502.3
338.15 K, x1 = 0.09974	1140.47	1452.7
338.15 K, x1 = 0.1499	1170.71	1420.3
338.15 K, x1 = 0.3013	1216.08	1368.1
338.15 K, x1 = 0.3994	1231.09	1350.4
338.15 K, x1 = 0.4973	1241.08	1338.3
338.15 K, x1 = 0.5999	1249.02	1328.7
338.15 K, x1 = 0.6988	1254.72	1321.6
338.15 K, x1 = 0.8953	1262.66	1311.2
338.15 K, x1 = 1	1265.44	1307

CCCC[N+]1(C)CCCC1.O=S(=O)([O-])C(F)(F)F [1-butyl-1-methylpyrrolidinium trifluoromethanesulfonate] + O
Conditions	mass density [kg/m3]	speed of sound [m/s]
278.15 K, x1 = 0.04996	1113.86	1595.9
278.15 K, x1 = 0.1	1163.55	1607.6
278.15 K, x1 = 0.1507	1190.82	1602.9
278.15 K, x1 = 0.1999	1208.34	1594.2
278.15 K, x1 = 0.2996	1229.14	1574.1
278.15 K, x1 = 0.3986	1240.96	1557
278.15 K, x1 = 0.4982	1248.7	1543.7
278.15 K, x1 = 0.5996	1254.27	1533.2
278.15 K, x1 = 0.6993	1258.35	1525.3
278.15 K, x1 = 0.8017	1261.86	1519.6
278.15 K, x1 = 0.8993	1264.45	1514
278.15 K, x1 = 1	1267.23	1513.5
288.15 K, x1 = 0.04996	1108.53	1594.7
288.15 K, x1 = 0.1	1156.83	1596.2
288.15 K, x1 = 0.1507	1183.59	1586
288.15 K, x1 = 0.1999	1200.79	1574.4
288.15 K, x1 = 0.2996	1221.49	1551.6
288.15 K, x1 = 0.3986	1233.35	1533.7
288.15 K, x1 = 0.4982	1241.17	1520
288.15 K, x1 = 0.5996	1246.83	1509.2
288.15 K, x1 = 0.6993	1251.01	1501
288.15 K, x1 = 0.8017	1254.33	1494.5
288.15 K, x1 = 0.8993	1256.9	1488.9
288.15 K, x1 = 1	1259.74	1486.1
298.15 K, x1 = 0.04996	1102.75	1590.4
298.15 K, x1 = 0.1	1149.85	1582.6
298.15 K, x1 = 0.1507	1176.19	1567.8
298.15 K, x1 = 0.1999	1193.14	1553.8
298.15 K, x1 = 0.2996	1213.77	1529
298.15 K, x1 = 0.3986	1225.71	1510.6
298.15 K, x1 = 0.4982	1233.63	1496.6
298.15 K, x1 = 0.5996	1239.37	1485.8
298.15 K, x1 = 0.6993	1243.63	1477.5
298.15 K, x1 = 0.8017	1247.06	1470.7
298.15 K, x1 = 0.8993	1249.64	1465
298.15 K, x1 = 1	1252.26	1461.4
308.15 K, x1 = 0.04996	1096.56	1583
308.15 K, x1 = 0.1	1142.62	1567
308.15 K, x1 = 0.1507	1168.56	1548.5
308.15 K, x1 = 0.1999	1185.37	1532.4
308.15 K, x1 = 0.2996	1206	1506.2
308.15 K, x1 = 0.3986	1218.04	1487.4
308.15 K, x1 = 0.4982	1226.07	1473.4
308.15 K, x1 = 0.5996	1231.92	1462.6
308.15 K, x1 = 0.6993	1236.25	1454.5
308.15 K, x1 = 0.8017	1239.76	1447.4
308.15 K, x1 = 0.8993	1242.39	1442
308.15 K, x1 = 1	1245.09	1437.8
318.15 K, x1 = 0.04996	1089.97	1572.9
318.15 K, x1 = 0.1	1135.15	1549.7
318.15 K, x1 = 0.1507	1160.74	1528
318.15 K, x1 = 0.1999	1177.49	1510.4
318.15 K, x1 = 0.2996	1198.16	1483.1
318.15 K, x1 = 0.3986	1210.34	1464.2
318.15 K, x1 = 0.4982	1218.51	1450.3
318.15 K, x1 = 0.5996	1224.48	1439.7
318.15 K, x1 = 0.6993	1228.9	1431.7
318.15 K, x1 = 0.8017	1232.49	1424.7
318.15 K, x1 = 0.8993	1235.16	1419.4
318.15 K, x1 = 1	1237.94	1414.9
328.15 K, x1 = 0.04996	1083.01	1560.3
328.15 K, x1 = 0.1	1127.45	1530.8
328.15 K, x1 = 0.1507	1152.76	1506.4
328.15 K, x1 = 0.1999	1169.5	1487.7
328.15 K, x1 = 0.2996	1190.27	1459.7
328.15 K, x1 = 0.3986	1202.62	1441
328.15 K, x1 = 0.4982	1210.95	1427.3
328.15 K, x1 = 0.5996	1217.05	1417
328.15 K, x1 = 0.6993	1221.57	1409.2
328.15 K, x1 = 0.8017	1225.24	1402.3
328.15 K, x1 = 0.8993	1227.97	1397.3
328.15 K, x1 = 1	1230.81	1392.7
338.15 K, x1 = 0.04996	1075.72	1545.4
338.15 K, x1 = 0.1	1119.53	1510.5
338.15 K, x1 = 0.1507	1144.53	1484
338.15 K, x1 = 0.1999	1161.26	1464.5
338.15 K, x1 = 0.2996	1182.3	1436.3
338.15 K, x1 = 0.3986	1194.89	1418
338.15 K, x1 = 0.4982	1203.39	1404.5
338.15 K, x1 = 0.5996	1209.64	1394.5
338.15 K, x1 = 0.6993	1214.26	1387
338.15 K, x1 = 0.8017	1218.03	1380.4
338.15 K, x1 = 0.8993	1220.81	1375.5
338.15 K, x1 = 1	1223.73	1371.1
